Among the data in patent US12371454B2, “Cyclic peptide compound having Kras inhibitory action” (priority 2019, dated 2025) are IC50 values, retold here.

The structures appear in SMILES notation. Starred links: 1 amine or outer side, 2 acyl side, 3 side chain; linkers in the order of their positions; H or OH if unused. Positions of bridges follow the written chain, without caps; N, C: chain ends. Non-standard residues stand in square brackets, D forms with d. Residues, ends and D or L forms follow the SMILES beside them. *: point of attachment. hPhe(3,5-F2-4-CF3) = N[C@@H](CCc1cc(F)c(C(F)(F)F)c(F)c1)C(=O)O; hPhe(3-Cl-4-CF3) = N[C@@H](CCc1ccc(C(F)(F)F)c(Cl)c1)C(=O)O; hPhe(3-F,4-CF3) = N[C@@H](CCc1ccc(C(F)(F)F)c(F)c1)C(=O)O; NMePhe(4-CF3) = CN[C@@H](Cc1ccc(C(F)(F)F)cc1)C(=O)O; X34 = O=C([C@H](CCc1ccc(C(F)(F)F)nc1)N[*:1])[*:2]; NMedβ3hAla = C[C@H](CC(=O)[*:2])N(C)[*:1]; NMeGly(cPent) = CN[C@H](C(=O)O)C1CCCC1; Pro(4,4-F2) = O=C(O)[C@@H]1CC(F)(F)CN1; NMe3Pal = CN[C@@H](Cc1cccnc1)C(=O)O; NMeCha = CN[C@@H](CC1CCCCC1)C(=O)O; NMehLeu = CN[C@@H](CCC(C)C)C(=O)O; NMeChg = CN[C@H](C(=O)O)C1CCCCC1; NMeI = CC[C@H](C)[C@H](NC)C(=O)O; d(β3hL) = CC(C)C[C@@H](N)CC(=O)O; NMeD = CN[C@@H](CC(=O)O)C(=O)O; NMeL = CN[C@@H](CC(C)C)C(=O)O; NMeNle = CCCC[C@H](NC)C(=O)O; NMeV = CN[C@H](C(=O)O)C(C)C; NMeA = CN[C@@H](C)C(=O)O; Piperidide = C1CCN(*)CC1; Pyrrolidide = C1CCN(*)C1; Ac5c = NC1(C(=O)O)CCCC1; Aze = O=C(O)[C@@H]1CCN1; Sar = CNCC(=O)O

This assay has as its system Human pancreatic cancer cell line AsPC-1. Kind of assay: Measurement of AsPC-1 cell growth inhibition (AsPC-1 CGI). The note with it: 96 h. It counts as cell-based. In short, it runs like this: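 AsPC-1 cells in 15% FBS RPMI-1640 were exposed to test compound for 96 hours at 37° C, with CellTiter-Glo as endpoint.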
Regarding `CC[C@H](C)[C@@H]1NC(=O)[C@H](CC(C)C)N(C)C(=O)C[C@@H](C(=O)N2CCCC2)N(C)C(=O)[C@H](C2CCCC2)N(C)C(=O)C2(CCCC2)NC(=O)[C@@H]2CCCN2C(=O)[C@H](CCc2ccc(C(F)(F)F)c(F)c2)NC(=O)CN(C)C(=O)[C@H](C2CCCC2)N(C)C(=O)[C@@H]2CCN2C(=O)[C@H](C)N(C)C1=O` [Compound 918] ([NMeL]I[NMeA][Aze][NMeGly(cPent)][Sar][hPhe(3-F,4-CF3)]P[Ac5c][NMeGly(cPent)][NMeD]-Pyrrolidide; lactam N-11), the IC50 (usually the concentration at which inhibition is half-maximal) is 20 to 50 nM.
In turn, `CC[C@H](C)[C@@H]1NC(=O)[C@H](CCC(C)C)N(C)C(=O)C[C@@H](C(=O)N(C)C)N(C)C(=O)[C@H](C2CCCC2)N(C)C(=O)C2(CCCC2)NC(=O)[C@@H]2CCCN2C(=O)[C@H](CCc2ccc(C(F)(F)F)c(F)c2)NC(=O)CN(C)C(=O)[C@H](CC2CCCCC2)N(C)C(=O)[C@@H]2CCN2C(=O)[C@H](C)NC1=O` [Compound 1292] ([NMehLeu]IA[Aze][NMeCha][Sar][hPhe(3-F,4-CF3)]P[Ac5c][NMeGly(cPent)][NMeD]-NMe2; lactam N-11) registered an IC50 of 20 to 50 nM.
In the case of `CC[C@H](C)[C@@H]1NC(=O)[C@H](CC(C)C)N(C)C(=O)C[C@@H](CC(C)C)NC(=O)[C@H]([C@@H](C)CC)N(C)C(=O)C2(CCCC2)NC(=O)[C@@H]2CCCN2C(=O)[C@H](CCc2ccc(C(F)(F)F)c(Cl)c2)NC(=O)CN(C)C(=O)[C@H](CC2CCCCC2)N(C)C(=O)[C@@H]2CCN2C(=O)[C@H](C)N(C)C1=O` [Compound 798] (cyclo([Ac5c][NMeI][d(β3hL)][NMeL]I[NMeA][Aze][NMeCha][Sar][hPhe(3-Cl-4-CF3)]P)) it was 100 to 500 nM; in that of `CC[C@H](C)[C@@H]1NC(=O)[C@H](CC(C)C)N(C)C(=O)C[C@@H](C(=O)N2CCCCC2)N(C)C(=O)[C@H](C2CCCC2)N(C)C(=O)C2(CCCC2)NC(=O)[C@@H]2CCCN2C(=O)[C@H](CCc2ccc(C(F)(F)F)nc2)NC(=O)CN(C)C(=O)[C@H](CC2CCCCC2)N(C)C(=O)[C@@H]2CCN2C(=O)[C@H](C)N(C)C1=O` [Compound 2078] ([NMeL]I[NMeA][Aze][NMeCha][Sar][X34]P[Ac5c][NMeGly(cPent)][NMeD]-Piperidide; lactam N-11), 100 to 500 nM.
In the case of `CC[C@H](C)[C@@H]1NC(=O)[C@H](C)N(C)C(=O)C[C@@H](C(=O)N2CCCCC2)N(C)C(=O)[C@H](C2CCCCC2)N(C)C(=O)C2(CCCC2)NC(=O)[C@H](Cc2cccnc2)N(C)C(=O)[C@H](CCc2ccc(C(F)(F)F)c(Cl)c2)NC(=O)CN(C)C(=O)[C@H](CC2CCCCC2)N(C)C(=O)CN(C)C(=O)CN(C)C1=O` [Compound 1012] ([NMeA]I[Sar][Sar][NMeCha][Sar][hPhe(3-Cl-4-CF3)][NMe3Pal][Ac5c][NMeChg][NMeD]-Piperidide; lactam N-11), the IC50 was 100 to 500 nM.
In turn, `CC[C@H](C)[C@@H]1NC(=O)[C@H](CC(C)C)N(C)C(=O)C[C@@H](C)N(C)C(=O)[C@H](C2CCCCC2)N(C)C(=O)C2(CCCC2)NC(=O)[C@@H]2CC(F)(F)CN2C(=O)[C@H](CCc2cc(F)c(C(F)(F)F)c(F)c2)NC(=O)CN(C)C(=O)[C@H](Cc2ccc(C(F)(F)F)cc2)N(C)C(=O)[C@@H]2CCN2C(=O)[C@H](C)N(C)C1=O` [Compound 606] (cyclo([Ac5c][NMeChg][NMedβ3hAla][NMeL]I[NMeA][Aze][NMePhe(4-CF3)][Sar][hPhe(3,5-F2-4-CF3)][Pro(4,4-F2)])) displayed an IC50 of 100 to 500 nM.
To `CCCC[C@H]1C(=O)N(C)CC(=O)N[C@@H](CCc2ccc(C(F)(F)F)c(Cl)c2)C(=O)N2CCC[C@H]2C(=O)NC2(CCCC2)C(=O)N(C)[C@@H](C(C)C)C(=O)N(C)[C@H](C(=O)N2CCCCC2)CC(=O)N(C)[C@@H](CC(C)C)C(=O)N[C@@H]([C@@H](C)CC)C(=O)N(C)[C@@H](C)C(=O)N2CC[C@H]2C(=O)N1C` [Compound 1712] ([NMeL]I[NMeA][Aze][NMeNle][Sar][hPhe(3-Cl-4-CF3)]P[Ac5c][NMeV][NMeD]-Piperidide; lactam N-11) belongs 100 to 500 nM.
